Patent US11072632B2, “Inhibitors of 17β-HSD1, 17β-HSD3 and 17β-HSD10” (UNIVERSITÉ LAVAL, priority 2011, dated 2021)
“Also recorded” adds a separate entry of the source.

Assays:
17β-HSD2 = biological target: T1, 17β-HSD2 (Homo sapiens, UniProt P37059); type: cell-based; details: 5 nM to 20 μM
T1 construct: expressed in transfected cells
T1 sequence (P37059 1-387): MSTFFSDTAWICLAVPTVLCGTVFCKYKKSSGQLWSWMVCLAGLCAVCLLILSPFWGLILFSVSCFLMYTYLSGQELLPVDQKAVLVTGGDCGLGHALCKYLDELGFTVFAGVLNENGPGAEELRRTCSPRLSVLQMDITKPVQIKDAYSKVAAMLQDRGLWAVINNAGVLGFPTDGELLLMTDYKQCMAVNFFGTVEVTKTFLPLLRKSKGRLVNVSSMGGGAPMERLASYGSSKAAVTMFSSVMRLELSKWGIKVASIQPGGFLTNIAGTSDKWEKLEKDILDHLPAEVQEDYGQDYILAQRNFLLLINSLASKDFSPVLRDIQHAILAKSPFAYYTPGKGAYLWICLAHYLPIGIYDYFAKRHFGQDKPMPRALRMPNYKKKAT
Protocol: Inhibition assays were performed using stable 17β-HSD2 HEK-293 transfected intact cells with 5000 cells per well using 24 well plates (Poirier et al. Mol. Cell. Endocrinol., 2001, 171, 119-128). The cells were incubated for 1 h at 37° C. in 1 mL of MEM medium steroid free with 60 nM C^14 estradiol.

T-47D cells [1] = assay: Estrogenic (proliferative) activity on T-47D (ER+) cell line; type: cell-based, human; details: 0.5, 1, 2.5 and 5 μM, 7 days
Protocol: (§1) Quantification of cell growth was determined by using CellTiter 96®Aqueous Solution Cell Proliferation Assay (Promega, Nepean, ON, Canada) following the manufacturer's instructions. T-47D cells were resuspended with the medium supplemented with insulin (50 ng/mL) and 5% dextran-coated charcoal treated FBS rather than 10% FBS to remove remaining hormones. Aliquots (100 μL) of the cell suspension were seeded in 96-well plates (3000 cells/well). After 48 h, the medium was changed with a new one containing an appropriate concentration of products to be tested and was replaced every 2 days. Cells have grown either in absence or presence of the compounds for 7 days. To determine the proliferative (estrogenic) activity, the estrogen-sensitive T-47D cells were grown in absence (basal cell proliferation was fixed as 100%) or presence of compounds to be tested at 0.5 to 10 μM. The potent estrogen E2 was used as a reference control. […] The cell proliferation without E1±inhibitor (control) was fixed as 100%. To determine the potential antiestrogenic activity of inhibitor Compound V, the T-47D (ER^+) cells were grown in the presence of estrogen E2 (0.1 nM) and pure antiestrogen EM-139 (0.5 μM) or inhibitor Compound V (0.5 μM). The cell proliferation without E2 and tested compounds (control) were fixed as 100%.

T-47D cells [2] = assay: Inhibition of E1-stimulated T-47D cell proliferation; type: cell-based, human; details: control 100%
Protocol: as §1

T-47D cells [3] = assay: Antiestrogenic activity, E2-induced T-47D proliferation; type: cell-based, human; details: E2 0.1 nM, compound 0.5 μM
Protocol: as §1

[4] = test system: ovariectomized (OVX) BALB/c mice; assay: In vivo estrogenicity assay in OVX mice (uterus, vagina weight); parameters: species or system mouse; details: 7 days; for weight of the uterus: OVX mice, s.c.
Protocol: Female ovariectomized (OVX) BALB/c mice weighing approximately 20 g were obtained from Charles-River, Inc. (St-Constant, Qc., Canada). The animals were housed 5 per cage. Groups of 5 mice were treated with E1 (0.02 μg in 8% EtOH/92% PG) or 17β-HSD1 inhibitor at 10, 50 and 250 μg (0.1 mL s.c.) daily for 7 days. Animals were killed 24 h after administration of the last dose of compound and uteri and vagina were removed, excised of fat and weighed. Total body weights of mice were also recorded.

T-47D tumors = assay: Inhibition of E1-stimulated T-47D tumor growth in nude OVX mice (xenograft); type: in vivo, mouse
Protocol: Female OVX BALB/c athymic nude mice weighing approximately 20 g were obtained from Charles-River, Inc. (St-Constant, Qc., Canada). The animals were housed 5 per cage. […] T-47D tumor growth was stimulated using 0.1 μg of E1 s.c. per mouse per day for 15 days. From day 16, animals with tumors were randomized in function of tumor volume and separated into three groups. Group 1 (control mice) was treated s.c. with 100 μL of vehicle alone (8% EtOH/92% PG) per mouse per day. Group 2 (E1 0.1 μg) was treated with E1 (0.1 μg/day, s.c. per mouse) during 32 days. Group 3 (E1 0.1 μg+Compound V 250 μg) was treated with E1 (0.1 μg/day) and Compound V (250 μg/day) per mouse in a combined s.c. injection for 32 days. The mice were weighed at start and volumes of tumors were determined by external caliper twice a week and the greatest longitudinal diameter (length) and the greatest transverse diameter (width) were determined. Tumor volume based on caliper measurements was calculated by the modified ellipsoidal formula: Tumor volume=½(length×width^2) (Jensen M M, Jorgensen J T, Binderup T, Kjaer A. Tumor volume in subcutaneous mouse xenografts measured by microCT is more accurate and reproducible than determined by 18F-FDG-microPET or external caliper. BMC Med Imaging 2008; 8:16). At the end of the studies the mice were terminally anaesthetized, final body weights and tumor sizes were determined. Uteri and vagina were removed, excised of fat and weighed (Day J M, Foster P A, Tutill H J, Parsons M F, Newman S P, Chander S K, et al. 17beta-hydroxysteroid dehydrogenase type 1, and not type 12, is a target for endocrine therapy of hormone-dependent breast cancer. Int J Cancer 2008; 122:1931-40; Husen B, Huhtinen K, Poutanen M, Kangas L, Messinger J, Thole H. Evaluation of inhibitors for 17beta-hydroxysteroid dehydrogenase type 1 in vivo in immunodeficient mice inoculated with MCF-7 cells stably expressing the recombinant human enzyme. Mol Cell Endocrinol 2006; 248:109-13; Husen B, Huhtinen K, Saloniemi T, Messinger J, Thole H H, Poutanen M: Human hydroxysteroid (17-beta) dehydrogenase 1 expression enhances estrogen sensitivity of MCF-7 breast cancer cell xenografts. Endocrinology 2006; 147:5333-9; Messinger J, Hirvela L, Husen B, Kangas L, Koskimies P, Pentikainen O, et al. New inhibitors of 17beta-hydroxysteroid dehydrogenase type 1. Mol Cell Endocrinol 2006; 248:192-8).

In the case of `C[C@]12CC[C@@H]3c4ccc(CCBr)cc4CC[C@H]3[C@@H]1C[C@H](Cc1cccc(C(N)=O)c1)[C@@H]2O` [Compound V, 3-{[(16β,17β)-3-(2-bromoethyl)-17-hydroxyestra-1(10),2,4-trien-16-yl]methyl}benzamide], the “inhibition of 17β-HSD2 (conversion of E2 to E1)” value (17β-HSD2) is reported as “no inhibition; also recorded: did not show any inhibition”, the “estrogenic (proliferative) activity on T-47D cells” value (T-47D cells [1]) is reported as “not estrogenic at any concentration tested” and the “cell growth, E1-induced” value (T-47D cells [2]; E1 0.1 nM + inhibitor 2.5 μM) is reported as 156%. For the same compound, the “cell growth, E1-induced” value (T-47D cells [2]; E1 0.1 nM + inhibitor 5 μM) was 125%, the “antiestrogenic activity (reversal of E2-induced proliferation)” value (T-47D cells [3]) was “does not reverse the proliferative effect” and the estrogenicity in vivo ([4]; 10, 50 and 250 μg/mouse/day) was “non-estrogenic in vivo”. The “weight of the uterus” value ([4]; 10 μg/mouse/day) was 25 mg, the “weight of the uterus” value ([4]; 50 μg/mouse/day) was 24 mg and the “weight of the uterus” value ([4]; 250 μg/mouse/day) was 23 mg. For the same compound, the toxicity (T-47D tumors; 250 μg/day/mouse (s.c.), 32 days) was “no apparent toxicity”, the “effect on mouse weight” value (T-47D tumors; 32-day treatment period) was “no effect” and the “growth of E1-stimulated tumors inhibited (%)” value (T-47D tumors; E1 0.1 μg/day + Compound V 250 μg/day s.c., 32 days) was 74%. For the same compound, the “effect on E1-stimulated uterine and vaginal weight” value (T-47D tumors; E1 0.1 μg/day + Compound V 250 μg/day, 32 days) was “had no effect on the E1-stimulated uterine and vaginal weight increase”.
